The METLIN SMRT retention time set (Domingo-Almenara et al. 2019)

Test: gradient 5% acetonitrile 3 min, to 50% in 2 min, to 85% in 15 min, held 3 min, 100 µL/min
Settings: column: Zorbax Extend-C18 2.1 x 50 mm; eluents: water / acetonitrile, 0.1% formic acid
Procedure, shortened: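 Over 3 months, pure standards in mixtures of ~100 molecules were run by HPLC coupled to a quadrupole time-of-flight mass spectrometer in positive and negative ionization mode. The column was a Zorbax Extend-C18 (2.1 × 50 mm, 1.8 μm) at 100 μL/min, eluted with water and acetonitrile each holding 0.1% formic acid, with 40 μL dead and 900 μL dwell volumes. Retention time was determined from adduct peaks chosen by software and checked manually.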

CN(CCc1noc(COc2ccc(F)cc2)n1)C(=O)c1ccc(F)cc1
RP-LC retention time: 878 s

CCc1nc(-n2cccc2)sc1C(=O)Nc1ccc(C)cc1F
RP-LC retention time: 1200 s

CCn1c(=O)c2c(cc(C)n2C)n(CC(=O)Nc2ccc(C)cc2C)c1=O
RP-LC retention time: 812 s

Cc1cc(NC(=O)CSc2nnc(CCc3nc4ccccc4[nH]3)o2)no1
RP-LC retention time: 553 s

COC(=O)c1sccc1S(=O)(=O)N1CCC(C(N)=O)(N2CCCCC2)CC1
RP-LC retention time: 580 s

Cc1cc(NC(=O)CN2CCc3ccccc3C2C(=O)N2CCCCC2)ccc1F (stereo not given)
RP-LC retention time: 964 s

COc1ccc(-c2coc3cc(OCc4ccc([N+](=O)[O-])cc4)ccc3c2=O)cc1OC
RP-LC retention time: 991 s

Cc1cc(C)cc(NS(=O)(=O)c2c[nH]c3ncccc23)c1
RP-LC retention time: 758 s

O=C(NCC(F)(F)F)C1CCN(C(=O)Cc2ccc(Cl)cc2)CC1
RP-LC retention time: 707 s

Cc1ccc(S(=O)(=O)N2CCc3nc(-c4ccccc4)ncc3C2)c(C)c1
RP-LC retention time: 1170 s

CCn1cc(-c2nc(CC(=O)NCc3ccccc3F)cs2)c2cccnc21
RP-LC retention time: 843 s

CC(C)Cn1cc(CCNC(=O)c2ccccc2)c2cccnc21
RP-LC retention time: 770 s

CCOc1cc(-c2cccc(Cl)c2)nc2ccc(C(=O)N3CCN(c4ccccn4)CC3)cc12
RP-LC retention time: 692 s

CC(=O)N(Cc1nn(C)c2c1CN(S(=O)(=O)c1ccc(Cl)cc1)CC2)c1ccccc1
RP-LC retention time: 844 s

CC(Cc1ccco1)NC(=O)c1cc2n(n1)CCCN(Cc1ccccc1)C2=O (stereo not given)
RP-LC retention time: 828 s

CC1CCN(c2nc(=O)n(CC(=O)Nc3ccc4c(c3)OCCO4)c3ccccc23)CC1
RP-LC retention time: 812 s

CC(C)CC(=O)NCCC1CCN(C(=O)Nc2cc(F)ccc2F)CC1
RP-LC retention time: 1190 s

O=C(NCc1ccco1)c1ccc2c(c1)C(=O)c1ccccc1-2
RP-LC retention time: 749 s

COCc1nc(CCNC(=O)C2CCC2)no1
RP-LC retention time: 609 s

CCCNC(=O)NCc1nc(-c2ccc(Cl)cc2)no1
RP-LC retention time: 806 s

CCCNC(=O)C1CCCN(c2nc3ncn(CC(=O)Nc4ccc(OCC)cc4)c(=O)c3s2)C1 (stereo not given)
RP-LC retention time: 720 s

Cn1nc(-c2nnc(-c3ccccc3F)o2)c2c1CCN(S(=O)(=O)c1ccc(Cl)cc1)C2
RP-LC retention time: 979 s

CCn1cc(CCNC(=O)CC2CCCC2)c2cccnc21
RP-LC retention time: 701 s

O=C(CCNc1cnc2cnccn12)NCc1ccc(N2CCCCC2)cc1
RP-LC retention time: 533 s

CCC(C(=O)N1CCn2c(C)nnc2C1)c1ccccc1 (stereo not given)
RP-LC retention time: 643 s

COC(=O)c1c(C)[nH]c(C(=O)N2CCC(CC(=O)NCc3ccccc3Cl)CC2)c1C
RP-LC retention time: 775 s

Cc1ccc(-c2ccc(-n3nc(C)c(S(=O)(=O)NC4CC4)c3C)nn2)cc1
RP-LC retention time: 944 s

CCn1c(=O)sc2cc(S(=O)(=O)N3CCC(C(=O)NCc4cccnc4)CC3)ccc21
RP-LC retention time: 610 s

Cc1nc(Cn2cccc2C(=O)Nc2cccc(Cl)c2)no1
RP-LC retention time: 911 s

CCOc1ccc(NC(=O)N(C)Cc2nc3ccccc3c(=O)n2CCOC)cc1
RP-LC retention time: 811 s

Cc1oc(-c2ccc(OC(C)C)cc2)nc1CN(c1ccccc1)S(=O)(=O)c1cccs1
RP-LC retention time: 1290 s

O=C(NCCOc1cccc(C(F)(F)F)c1)C1CCCC1
RP-LC retention time: 880 s

COC1CN(C2CCN(C(=O)c3cccs3)CC2)C12CCOCC2 (stereo not given)
RP-LC retention time: 572 s

Cc1ccc(-c2noc(CN3C(=O)C(C)Oc4ccccc43)n2)cc1 (stereo not given)
RP-LC retention time: 1120 s

CCOCCCNC(=O)N1CCOc2ccc(CN(CC)CC)cc2C1
RP-LC retention time: 591 s

CCOc1ccccc1NC(=O)N1C[C@H](c2nc(-c3cccnc3)no2)[C@@H](C)C1
RP-LC retention time: 937 s

Cc1cc2cc(CN3C(=O)c4ccccc4C3=O)ccc2[nH]1
RP-LC retention time: 866 s

Cc1ccc2oc(CN3CCN(C(=O)Nc4ccccc4)CC3)nc2c1
RP-LC retention time: 678 s

COc1ccccc1N1CCN(C(=O)CCc2nnc3c4cc(-c5ccccc5)nn4ccn23)CC1
RP-LC retention time: 763 s

CCn1ccnc1N1CCN(C(=O)COc2ccc(Cl)cc2Cl)CC1
RP-LC retention time: 593 s

CCCNC(=O)C1CCCN(C(=O)c2[nH]c(C)c(C)c2C)C1 (stereo not given)
RP-LC retention time: 721 s

COc1ccccc1-c1noc(Cn2c(=O)n(Cc3ccc(F)cc3)c(=O)c3sccc32)n1
RP-LC retention time: 1020 s

CC(C)(C)C1CCc2[nH]nc(C(=O)NC3CC3)c2C1 (stereo not given)
RP-LC retention time: 843 s

CCn1nnc2cc(-c3noc(C4CC(=O)N(c5cccc(Cl)c5)C4)n3)ccc21 (stereo not given)
RP-LC retention time: 809 s

CC(C)C[C@@H](C(=O)N[C@H](C(=O)OC1CCCC1)c1ccccc1)[C@H](O)C(=O)NO
RP-LC retention time: 822 s

Cc1ccc(-c2noc(C3CCCN3S(=O)(=O)c3ccc(Cl)cc3C)n2)cc1 (stereo not given)
RP-LC retention time: 1320 s

CC1CCC2(CC1)NC(=O)N(CC(=O)NCc1ccc(F)cc1)C2=O (stereo not given)
RP-LC retention time: 801 s

Nc1cc(C2CCN(C(=O)Nc3ccccc3C(F)(F)F)CC2)no1
RP-LC retention time: 698 s

Cc1ccc(-c2nc3ncccn3c2Nc2ccc(C)c(C)c2)cc1
RP-LC retention time: 848 s

COc1ccc(OC)c(S(=O)(=O)Nc2ccc(-c3cn4ccc(C)nc4n3)cc2)c1
RP-LC retention time: 642 s

Cc1csc(-c2cc(S(=O)(=O)Nc3ccc(S(N)(=O)=O)cc3)c(C)n2C)n1
RP-LC retention time: 749 s

CN1CCN(CCNC(=O)c2cc(-c3cccnc3)nc3ccc(Br)cc23)CC1
RP-LC retention time: 585 s

CCNc1cc(N2CCC(CCC(=O)Nc3ccc4c(c3)OCCO4)CC2)ncn1
RP-LC retention time: 572 s

COc1ccc(NC(=O)CN2CCC(c3nc(-c4cccs4)no3)CC2)cc1
RP-LC retention time: 670 s

Cc1ccc2nc(N3CCN(c4ccc(F)cc4)CC3)c(-c3noc(C)n3)cc2c1
RP-LC retention time: 732 s

O=C(c1c[nH]c2ncccc12)N1CCCC1
RP-LC retention time: 589 s

COc1cccc(CNC(=O)COc2cc(C)nc(N3CCN(c4ccccc4)CC3)n2)c1OC
RP-LC retention time: 783 s

CC1=C(c2ccc(Cl)cc2)S(=O)(=O)N=C1N1CCCN(C(=O)CC(C)C)CC1
RP-LC retention time: 875 s

COc1c(/C=N/NC(N)=O)c(OC)c(OC)c2c1CCO2
RP-LC retention time: 1080 s

Cc1cnc(C(=O)NC2C[C@H]3CC[C@@H](C2)N3C(=O)c2sccc2C)cn1 (stereo not given in full)
RP-LC retention time: 663 s

Cc1c(Cl)cccc1NS(=O)(=O)c1cc2c(s1)CCN(C(=O)C1CCC1)C2
RP-LC retention time: 916 s

CC1CCN(Cc2csc(N3CCN(C(=O)CSc4ccccc4)CC3)n2)CC1
RP-LC retention time: 1130 s

CCOc1ccccc1CN1C[C@@H](CO)[C@H](c2ccccn2)C1
RP-LC retention time: 620 s

COc1ccc(CC(=O)N2CCn3cnnc3C2)cc1Cl
RP-LC retention time: 621 s

Cc1ccsc1C(=O)N1CCN(c2ccc(=O)n(-c3cccc(Cl)c3)n2)CC1
RP-LC retention time: 853 s

Cc1cccc(S(=O)(=O)N2CCC(n3cnnc3C(C)C)CC2)c1
RP-LC retention time: 735 s

CC(C)(CO)NC(=O)Cc1ccc(NC(=O)C2(c3ccc(F)cc3)CC2)cc1
RP-LC retention time: 734 s

CN1C(=O)c2ccccc2Sc2cc(-c3noc(CNC(=O)c4ccco4)n3)ccc21
RP-LC retention time: 702 s

CCn1cnc2ccc(-c3noc(-c4ccccc4OC)n3)cc21
RP-LC retention time: 742 s

CN1CCCn2nc(C3CCN(C(=O)c4cccc(C(F)(F)F)c4)CC3)cc2C1=O
RP-LC retention time: 718 s

Cc1oc(C(C)C)nc1C(=O)NCc1ccc(C(F)(F)F)cc1
RP-LC retention time: 1060 s

Cc1ccc(-c2nc3cnccn3c2NCCC(=O)N(C)C)cc1
RP-LC retention time: 622 s

COc1cc(OC)c(NC(=O)N2CCc3cn(C)c4cccc(c34)C2)cc1Cl
RP-LC retention time: 887 s

CCOC(=O)c1noc2ncnc(NCc3ccccc3Cl)c12
RP-LC retention time: 965 s

COc1ccccc1N1CCN(c2cc(SCC(=O)Nc3cccc(Cl)c3F)ncn2)CC1
RP-LC retention time: 1270 s

Cc1ccc(-c2nc(NC3CCCCC3C)c3ccccc3n2)cc1 (stereo not given)
RP-LC retention time: 906 s

O=C(Cn1nc(N2CCOCC2)c2ccccc2c1=O)Nc1ccc2c(c1)OCO2
RP-LC retention time: 733 s

O=C(Nc1ccc(-n2cnc(C(=O)N3CCN(c4ccccc4)CC3)c2)nc1)C1CC1
RP-LC retention time: 726 s

CCCNc1nc(N)c2ccccc2n1
RP-LC retention time: 573 s

COc1ccccc1CNC1=NCCNC12CCN(S(=O)(=O)c1ccccc1C)CC2
RP-LC retention time: 732 s

COCCCNS(=O)(=O)c1cc(-c2[nH]ncc2C(=O)N2CCCC2)oc1C
RP-LC retention time: 623 s

CN(C)c1ccc(C(=O)N2CCCC(COc3ccc(C(=O)NC4CC4)cc3)C2)cc1 (stereo not given)
RP-LC retention time: 780 s

Cc1cc(C)nc(NS(=O)(=O)c2ccc(Nc3nc(-c4ccc(F)c(C)c4)cs3)cc2)n1
RP-LC retention time: 1000 s

CCOC(=O)C1=C(C)NC2=C(C(=O)C(C(=O)OC)C(C)C2)C1c1ccccc1Cl (stereo not given)
RP-LC retention time: 965 s

Cc1sc(NC(=O)CCC2CCCCC2)nc1-c1ccc2c(c1)NC(=O)CO2
RP-LC retention time: 1060 s

CCCc1noc(-c2ccnc(-n3ncc(C(=O)N4CCCC4)c3C)c2)n1
RP-LC retention time: 896 s

CCC(C)NS(=O)(=O)c1c(C)nn(-c2ccc(-c3ccc(C)cc3)nn2)c1C (stereo not given)
RP-LC retention time: 1040 s

O=C(NC1CCN(c2cc(-c3cccs3)[nH]n2)C1)c1ccc(F)c(F)c1 (stereo not given)
RP-LC retention time: 752 s

COc1ccc(-c2ncc3c(n2)CCN(C(=O)Nc2ccc(C)c(F)c2)C3)cc1
RP-LC retention time: 996 s

NC(=O)Nc1ccc(Nc2ccccc2)cc1
RP-LC retention time: 752 s
